{"source": "patent US5733929A", "about": "“Pharmaceutical composition for treating or preventing allergic rhinitis” (Takeda Chemical Industries, Ltd., priority 1993, dated 1998)", "key": {"[1]": {"target": "T1, human platelet-derived TXA2 receptor (Homo sapiens, UniProt P21731)", "T1 construct": "expressed in transfected cells", "T1 sequence (P21731 1-343)": "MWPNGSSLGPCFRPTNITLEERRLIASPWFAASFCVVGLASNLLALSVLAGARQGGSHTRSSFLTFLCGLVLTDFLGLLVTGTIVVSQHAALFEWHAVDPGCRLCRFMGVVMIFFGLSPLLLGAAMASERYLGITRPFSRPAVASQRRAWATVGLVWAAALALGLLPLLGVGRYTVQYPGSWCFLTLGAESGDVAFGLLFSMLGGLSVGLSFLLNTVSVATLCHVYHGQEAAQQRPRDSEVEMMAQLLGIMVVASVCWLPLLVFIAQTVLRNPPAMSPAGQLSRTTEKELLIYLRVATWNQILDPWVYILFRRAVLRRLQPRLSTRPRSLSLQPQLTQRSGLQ", "assay": "binding of U-46619 to human platelet-derived TXA2 receptor expressing cells (TCHO-25), receptor assay", "excerpt": "Effects on the binding of U-46619 (11-9-epoxymethane-PGH2, a substance having thromboxane A2 -like activity) to human platelet-derived TXA2 receptor expressing cells\nA vector containing cDNA encoding TXA2 receptor (TXA2 .cndot.R) and a vector containing cDNA encoding dihydrofolate reductase were mixed in a ratio of 10:1, and are transferred simultaneously to Chinese hamster ovary (CHO) cells by the calcium phosphate method. Two days later, these cells were inoculated into a medium containing 0.3 mM proline, 10% bovine fetus serum and 0.1 μM methotrexate in a concentration of 2000 cells/well and incubated."}, "[2]": {"system": "ICR male mice", "assay": "oral toxicity in mice", "assay_type": "in vivo", "conditions": "1000 mg/kg, five ICR male mice (5 weeks old), 7 days", "excerpt": "The compounds to be used as an active ingredient in the present invention have low toxicity. […] The compound to be used as an active ingredient in the present invention can be used as it is or as a pharmaceutical composition (e.g., tablets, granules, capsules including soft capsules and microcapsules, liquid preparations, injections, suppositories, nasal drops, eye drops, etc.) prepared by mixing the compound with a per se known pharmaceutically acceptable carrier, diluent, excipient, etc., for treating or preventing allergic rhinitis, particularly nasal congestion in a mammal. The administration route may be oral or parenteral. The dose varies with the subject to be administered, administration route, symptoms, etc. For example, for oral administration to an adult patient, a unit dose of normally about 0.1 mg/kg to 20 mg/kg body weight, preferably 0.1 mg/kg to 10 mg/kg body weight is advantageously administered about once or twice a day."}, "[3]": {"system": "intranasal pressure increase induced by inhalation of antigens", "assay": "Experiment 5: intranasal pressure increase induced by inhalation of antigens in actively sensitized (involving IgE participation) guinea pigs", "assay_type": "in vivo", "conditions": "p.o.; for Internasal pressure increase AUC(0-30 min): 5% G.A. 339 ± 55", "procedure": "Hartley male guinea pigs weighing 300 to 400 g (Nippon SLC, Shizuoka, Japan) were anesthetized with pentobarbital (30 mg/kg, i.p.) and fixed on their backs. The cervical part was opened along the median line, the trachea was opened for maintaining respiration, and a cannula was inserted. A tube (JMS cutdown tube, 2.5 mm in outer diameter and 3.5 cm in length) was inserted from the opened site of the trachea into the nasal cavity. The other end of the tube was connected to a respirator (Harvard respirator, model 683), and air was sent into the nasal cavity at a tidal volume of 4 ml and a respiration rate of 70/min. Aerosol of U-46619 (30 μg/ml) solution was prepared using an ultrasonic nebulizer and sent into the nasal cavity for 3 minutes. Changes of the intranasal pressure were determined with a differential pressure transducer connected to the branch of the tube. To prevent air leakage into the oral cavity, the oral cavity was closed with an adhesive (Aron alpha, trade name). Effects on intranasal pressure increase induced by inhalation of antigens in actively sensitized (involving IgE participation) guinea pigs Hartley male guinea pigs weighing 300 to 400 g (Nippon SLC, Shizuoka, Japan) were immunized by a modified method of the method of Levine et al. Sensitization was carried out by intraperitoneally administering physiological saline (1 ml) containing ovalbumin (OA)(10 μg) and aluminium hydroxide gel (5 mg) 4 times every 2 weeks. The sensitized guinea pigs were used one week after the final administration. These guinea pigs were anesthetized with pentobarbital (30 mg/kg, i.p.). In a similar manner to that described in Experiment 4, changes of intranasal pressure were determined. Aerosol of OA (3%) was prepared using an ultrasonic nebulizer provided between the respirator and the intranasal tube, and sent into the nasal cavity for 3 minutes. The test drug was suspended in 5% G.A. solution and orally administered one hour before the OA inhalation."}, "[4]": {"system": "allergic rhinitis", "assay": "Experiment 2: effects of perfusion in nasal cavities on allergic rhinitis in guinea pigs (pigment leakage)", "assay_type": "in vivo", "conditions": "5 mg/kg perfused in nasal cavity; increase Period-3 minus Period-1; 16 animals; 5% G.A. 13.83 ± 2.61", "procedure": "Effects of perfusion in nasal cavities on allergic rhinitis in guinea pigs\nAerosol of 1% ovalbumin (OA) solution in physiological saline was prepared using an ultrasonic nebulizer (TUR-3200, Nippon Kohden, Tokyo, Japan), and administered to Hartley male guinea pigs weighing 300 to 350 g (Seiwa Jikken Dohbutsu, Fukuoka, Japan) by inhalation for 10 minutes in a polyacrylamide box (20×28×20 cm) once a week (twice in all). Thus the guinea pigs were sensitized. One week after the sensitization, the guinea pigs were anesthetized with pentobarbital sodium (30 mg/kg, i.p.) and fixed on their backs on a thermal pad (Deltaphase isothermal pad, Braintree Scientific, Inc.). The cervical part was opened along the median line, the trachea was opened, a trachea cannula was inserted into the pulmonary side, and the esophagus was ligated. On the other hand, a polyethylene tube (5.5 cm in length, 2.3 mm in outer diameter, Hibiki) connected to an infusion pump was inserted at the nasal side into the choana. […] The resulting perfusion solution was centrifuged at 15,000× g for 1.5 minutes, and the amount of the pigment in the supernatant was determined by absorbance at 610 nm. The activity of the drug was evaluated using as an indication the increased amount of the leaked pigment at Period-3 (i.e., (the amount of the pigment at Period-3)--(the amount of the pigment at Period-1))."}, "[5]": {"system": "intranasal pressure increase induced by antigen inhalation", "assay": "Experiment 6: intranasal pressure increase induced by antigen inhalation in guinea pigs sensitized by antigen inhalation", "assay_type": "in vivo", "conditions": "p.o.; for Increase of intranasal pressure AUC(0-25 min): 5% G.A. 278 ± 35", "procedure": "Hartley male guinea pigs weighing 300 to 400 g (Nippon SLC, Shizuoka, Japan) were anesthetized with pentobarbital (30 mg/kg, i.p.) and fixed on their backs. The cervical part was opened along the median line, the trachea was opened for maintaining respiration, and a cannula was inserted. A tube (JMS cutdown tube, 2.5 mm in outer diameter and 3.5 cm in length) was inserted from the opened site of the trachea into the nasal cavity. The other end of the tube was connected to a respirator (Harvard respirator, model 683), and air was sent into the nasal cavity at a tidal volume of 4 ml and a respiration rate of 70/min. Aerosol of U-46619 (30 μg/ml) solution was prepared using an ultrasonic nebulizer and sent into the nasal cavity for 3 minutes. Changes of the intranasal pressure were determined with a differential pressure transducer connected to the branch of the tube. To prevent air leakage into the oral cavity, the oral cavity was closed with an adhesive (Aron alpha, trade name). Effects on intranasal pressure increase induced by antigen inhalation in guinea pigs sensitized by antigen inhalation Aerosol of 1% OA solution in physiological saline was prepared and administered to Hartley male guinea pigs weighing 300 to 400 g (Nippon SLC, Shizuoka, Japan) by inhalation for 10 minutes. One week later, inhalation was performed again for sensitization. These animals were used as sensitized animals. In a similar manner to that described in Experiment 4, intranasal pressure was determined. The test drug was suspended in 5% G.A. solution and orally administered one hour before the antigen induction."}, "[6]": {"system": "allergic experimental rhinitis", "assay": "Experiment 1: inhibitory effects on allergic experimental rhinitis in guinea pigs (pigment leakage after antigen perfusion)", "assay_type": "in vivo", "conditions": "30 mg/kg, oral, 1 hour before antigen", "procedure": "Inhibitory effects on allergic experimental rhinitis in guinea pigs\nHartley male guinea pigs weighing 350 to 450 g were used. Aerosol of 1% ovalbumin (OA) in physiological saline was prepared using an ultrasonic nebulizer and administered to the guinea pigs by inhalation for 10 minutes. Thus the guinea pigs were sensitized. One week later, the antigen was administered again by inhalation, and the guinea pigs were used for this experiment after one week. The following experiment procedures were carried out by reference to the method of Kojima et al. (Allergy, Vol. 35, p. 180-187 (1986)).\nThe sensitized guinea pigs were anesthetized by administering pentobarbital (30 mg/kg) intraperitoneally. […] The collected sample was centrifuged at 3000 rpm for 10 minutes, and the absorbance of the supernatant at 620 nm was measured with a spectrophotometer to calculate the pigment concentration.\nThe drug was suspended in 5% gum arabic (G.A.) solution and was orally administered 1 hour before the antigen induction. The inhibitory ratio (%) was calculated as a ratio of the amount of the leaked pigment to the maximum amount of the leaked pigment in the control group 10 minutes after the antigen induction. […]"}}, "note": "Counter-ions that a name gives are not always drawn.", "data": [{"compound": "CC1=C(C)C(=O)C(C(CCCCCC(=O)O)c2ccccc2)=C(C)C1=O", "note": "(racemic) [Compound 1, (±)-7-(3,5,6-trimethyl-1,4-benzoquinon-2-yl)-7-phenylheptanoic acid]", "values": [{"measurement": "inhibition of the binding of U-46619 to TXA2 receptor (mode)", "setting": "[1]; TCHO-25 cells", "value": "competitively inhibited"}, {"measurement": "mortality", "setting": "[2]", "value": "no mice died"}, {"measurement": "Internasal pressure increase AUC(0-30 min)", "setting": "[3]; 0.3 mg/kg, 12 animals", "value": "208 ± 44"}, {"measurement": "Internasal pressure increase AUC(0-30 min)", "setting": "[3]; 3.0 mg/kg, 12 animals", "value": "241 ± 32"}, {"measurement": "Internasal pressure increase AUC(0-30 min)", "setting": "[3]; 30 mg/kg, 13 animals, *P < 0.05", "value": "183 ± 36"}, {"measurement": "Pigment concentration", "setting": "[4]", "value": "8.87 ± 2.47", "unit": "µg/mL"}, {"measurement": "Increase of intranasal pressure AUC(0-25 min)", "setting": "[5]; 0.3 mg/kg, 7 animals", "value": "246 ± 44"}, {"measurement": "Increase of intranasal pressure AUC(0-25 min)", "setting": "[5]; 3.0 mg/kg, 8 animals", "value": "201 ± 41"}, {"measurement": "Increase of intranasal pressure AUC(0-25 min)", "setting": "[5]; 30 mg/kg, 7 animals, *P < 0.05", "value": "143 ± 19"}]}, {"compound": "COc1ccc(CN(CCN(C)C)c2ccccn2)cc1", "note": "[Mepyramine]", "values": [{"measurement": "Inhibitory ratio (%)", "setting": "[6]; Table 1, 9 animals", "value": 81, "unit": "%"}, {"measurement": "Inhibitory ratio (%)", "setting": "[6]; Table 2, 10 animals, **P < 0.01", "value": 77, "unit": "%"}]}, {"compound": "CN1CCCC(n2nc(Cc3ccc(Cl)cc3)c3ccccc3c2=O)CC1", "note": "(stereo not shown) [Azelastine hydrochloride, reference compound]", "values": [{"measurement": "Internasal pressure increase AUC(0-30 min)", "setting": "[3]; 1.0 mg/kg, 8 animals, **P < 0.01", "value": "92 ± 14"}, {"measurement": "Inhibitory ratio (%)", "setting": "[3]; 1.0 mg/kg, AUC(0-30 min), 8 animals", "value": 73, "unit": "%"}, {"measurement": "Increase of intranasal pressure AUC(0-25 min)", "setting": "[5]; 1.0 mg/kg, 7 animals, marked **", "value": "157 ± 35"}, {"measurement": "Inhibitory ratio (%)", "setting": "[5]; 1.0 mg/kg, AUC(0-25 min), 7 animals", "value": 44, "unit": "%"}]}, {"compound": "CCCCC[C@H](O)/C=C/[C@@H]1[C@@H](C/C=C\\CCCC(=O)O)[C@H]2CO[C@@H]1C2", "note": "[Compound U-46619, 11-9-epoxymethane-PGH2, reference compound]", "values": [{"measurement": "Kd", "setting": "[1]; U-46619 based on TXA2 receptor on TCHO-25 cells, read-out: dissociation constant", "value": 31, "unit": "nM"}]}]}
